The target in one data set is Cyclin-dependent kinase 5/CDK5 activator 1 (Homo sapiens, UniProt Q00535). As to the kind of experiment: Inhibitory activity against Cdk5/p25. Type of data set: protein-complex assay.
Sequence of Cyclin-dependent kinase 5/CDK5 activator 1 (Q00535 whole entry): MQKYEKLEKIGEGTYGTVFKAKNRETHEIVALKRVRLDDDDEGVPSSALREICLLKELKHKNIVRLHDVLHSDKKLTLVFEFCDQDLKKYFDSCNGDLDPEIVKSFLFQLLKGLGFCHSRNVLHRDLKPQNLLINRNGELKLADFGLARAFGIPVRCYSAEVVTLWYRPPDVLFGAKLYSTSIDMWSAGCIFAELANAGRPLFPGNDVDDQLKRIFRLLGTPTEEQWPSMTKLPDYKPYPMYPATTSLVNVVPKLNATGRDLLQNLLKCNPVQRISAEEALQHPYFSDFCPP
Sequence of Cyclin-dependent kinase 5/CDK5 activator 1 (Q15078 whole entry, further chain): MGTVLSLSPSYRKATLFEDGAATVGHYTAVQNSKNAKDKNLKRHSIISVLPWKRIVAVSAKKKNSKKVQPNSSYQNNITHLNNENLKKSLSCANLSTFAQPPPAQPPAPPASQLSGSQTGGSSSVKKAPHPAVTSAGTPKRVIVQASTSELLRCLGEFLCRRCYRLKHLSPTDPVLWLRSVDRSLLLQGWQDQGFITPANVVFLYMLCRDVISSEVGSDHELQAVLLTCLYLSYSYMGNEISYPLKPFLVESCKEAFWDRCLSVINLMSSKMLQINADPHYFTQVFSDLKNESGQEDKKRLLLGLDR
Conditions: not given; call rule not given here
Compound `O=C(CCl)Nc1cc(-c2ccccc2)c(-c2nnc3n2NC(=O)CS3)s1` yielded an IC50 of 634 nM.
Still for that read-out and setting: under `Cc1cc(NC(=O)CCl)sc1-c1nnc2n1N=C(c1cc(F)c(Cl)cc1Cl)/C(=C/c1cccc([N+](=O)[O-])c1)S2` stands 3070 nM.
For the compound `CC(=O)Nc1cc(C)c(-c2nnc3n2N=C(c2cc(F)c(Cl)cc2Cl)/C(=C/c2cccc([N+](=O)[O-])c2)S3)s1`, half-maximal inhibition (IC50) was put at 3050 nM.
Same read-out and setting: next, `O=C(CCl)Nc1cc(-c2ccccc2)c(-c2nnc3n2N=C(c2cc(F)c(Cl)cc2Cl)/C(=C/c2ccccc2)S3)s1`: 2490 nM; `CC(=O)Nc1cc(C)c(-c2nnc3n2N=C(c2cc(F)c(Cl)cc2Cl)/C(=C/c2ccc(Cl)cc2)S3)s1`: 3390 nM.
Still for that read-out and setting: under `CC(=O)Nc1cc(-c2ccccc2)c(-c2nnc3n2N=C(C)CS3)s1` stands 448 nM.
Still for that read-out and setting: next, `CC(=O)Nc1cc(C)c(-c2nnc3n2N=C(c2cc(F)c(Cl)cc2Cl)/C(=C/c2ccccc2Cl)S3)s1`: 3280 nM; `Cc1cc(NC(=O)CCl)sc1-c1nnc(S)n1N`: 46 nM.
As to `O=C(CCl)Nc1cc(-c2ccccc2)c(-c2nnc3n2N=C(c2cc(F)c(Cl)cc2Cl)/C(=C/c2cccc([N+](=O)[O-])c2)S3)s1`, the half-inhibitory concentration (IC50) was found to be 2680 nM.
Still for that read-out and setting: next, `CC(=O)Nc1cc(-c2ccccc2)c(-c2nnc3n2N=C(c2cc(F)c(Cl)cc2Cl)/C(=C/c2ccccc2Cl)S3)s1`: 2460 nM.
Still for that read-out and setting: next, `O=C(CCl)Nc1cc(-c2ccccc2)c(-c2nnc3n2N=C(c2cc(F)c(Cl)cc2Cl)/C(=C/c2ccccc2Cl)S3)s1`: 2460 nM; `O=C(CCl)Nc1cc(-c2ccccc2)c(-c2nnc3n2N=C(c2cc(F)c(Cl)cc2Cl)/C(=C/c2ccc(Cl)cc2)S3)s1`: 2450 nM; `CC(=O)Nc1cc(C)c(-c2nnc3n2N=C(c2cc(F)c(Cl)cc2Cl)/C(=C/c2ccccc2)S3)s1`: 2370 nM.
With `O=C(CCl)Nc1cc(-c2ccccc2)c(-c2nnc3sc(S)nn23)s1`, the IC50 stood at 5900 nM.
The same measure, in the same setting: next, `Cc1cc(NC(=O)CCl)sc1-c1nnc2sc(=S)[nH]n12`: 7480 nM.
On the same count and under the same terms, next, `Cc1cc(NC(=O)CCl)sc1-c1nnc2n1N=C(c1cc(F)c(Cl)cc1Cl)/C(=C/c1ccc(Cl)cc1)S2`: 2970 nM.
On the same count and under the same terms, under `CC(=O)Nc1cc(-c2ccccc2)c(-c2nnc3sc(=S)[nH]n23)s1` stands 2060 nM; under `CC(=O)Nc1cc(-c2ccccc2)c(-c2nnc3n2N=C(c2cc(F)c(Cl)cc2Cl)/C(=C/c2ccc(Cl)cc2)S3)s1`, 2480 nM; under `CC1=Nn2c(nnc2-c2sc(NC(=O)CCl)cc2C)SC1`, 462 nM.
In the case of `CC(=O)Nc1cc(-c2ccccc2)c(-c2nnc3n2N=C(c2cc(F)c(Cl)cc2Cl)/C(=C/c2cccc([N+](=O)[O-])c2)S3)s1`, the midpoint of inhibition, the IC50, lay at 2440 nM.
The same measure, in the same setting: next, `Cc1cc(NC(=O)CCl)sc1-c1nnc2n1N=C(c1cc(F)c(Cl)cc1Cl)/C(=C/c1ccccc1Cl)S2`: 3340 nM; `CC(=O)Nc1cc(-c2ccccc2)c(-c2nnc3n2N=C(c2cc(F)c(Cl)cc2Cl)/C(=C/c2ccccc2)S3)s1`: 1450 nM.
`CC(=O)Nc1cc(C)c(-c2nnc3sc(=S)[nH]n23)s1` yielded an IC50 of 3260 nM.
Take `CC(=O)Nc1cc(C)c(-c2nnc3n2N=C(C)CS3)s1`: 642 nM corresponded to half-maximal inhibition (IC50).

System in a further data set: not listed separately
As to the kind of experiment: Inhibitory activity against Cdk2/cyclin E. The arrangement: species or system Homo sapiens.
Conditions: not given
`Cc1cc(NC(=O)CCl)sc1-c1nnc(S)n1N` had a half-maximal inhibitory concentration (IC50) of 49 nM.

System in the next data set: not listed separately
As to the kind of experiment: Toxicity in Vero-C1008 cells at 6.25 to 50 ug/ml. The conditions noted are these: African green monkey. In kind it is cell-based.
In the case of `O=C(CCl)Nc1cc(-c2ccccc2)c(-c2nnc3n2NC(=O)CS3)s1`, the Activity result is “Not Active”.
The same measure, in the same setting: next, `Cc1cc(NC(=O)CCl)sc1-c1nnc2n1N=C(c1cc(F)c(Cl)cc1Cl)/C(=C/c1cccc([N+](=O)[O-])c1)S2`: “Not Active”; `CC(=O)Nc1cc(C)c(-c2nnc3n2N=C(c2cc(F)c(Cl)cc2Cl)/C(=C/c2cccc([N+](=O)[O-])c2)S3)s1`: “Not Active”; `O=C(CCl)Nc1cc(-c2ccccc2)c(-c2nnc3n2N=C(c2cc(F)c(Cl)cc2Cl)/C(=C/c2ccccc2)S3)s1`: “Not Active”.
Still for that read-out and setting: under `CC(=O)Nc1cc(C)c(-c2nnc3n2N=C(c2cc(F)c(Cl)cc2Cl)/C(=C/c2ccc(Cl)cc2)S3)s1` stands “Not Active”; under `CC(=O)Nc1cc(-c2ccccc2)c(-c2nnc3n2N=C(C)CS3)s1`, “Not Active”.
Same read-out and setting: next, `CC(=O)Nc1cc(C)c(-c2nnc3n2N=C(c2cc(F)c(Cl)cc2Cl)/C(=C/c2ccccc2Cl)S3)s1`: “Not Active”.
For `Cc1cc(NC(=O)CCl)sc1-c1nnc(S)n1N`, the Activity entry is “Not Active”.
On the same count and under the same terms, under `O=C(CCl)Nc1cc(-c2ccccc2)c(-c2nnc3n2N=C(c2cc(F)c(Cl)cc2Cl)/C(=C/c2cccc([N+](=O)[O-])c2)S3)s1` stands “Not Active”.
The same measure, in the same setting: next, `CC(=O)Nc1cc(-c2ccccc2)c(-c2nnc3n2N=C(c2cc(F)c(Cl)cc2Cl)/C(=C/c2ccccc2Cl)S3)s1`: “Not Active”.
On the same count and under the same terms, next, `O=C(CCl)Nc1cc(-c2ccccc2)c(-c2nnc3n2N=C(c2cc(F)c(Cl)cc2Cl)/C(=C/c2ccccc2Cl)S3)s1`: “Not Active”.
In the case of `O=C(CCl)Nc1cc(-c2ccccc2)c(-c2nnc3n2N=C(c2cc(F)c(Cl)cc2Cl)/C(=C/c2ccc(Cl)cc2)S3)s1`, the Activity result was “Not Active”.
On the same count and under the same terms, next, `CC(=O)Nc1cc(C)c(-c2nnc3n2N=C(c2cc(F)c(Cl)cc2Cl)/C(=C/c2ccccc2)S3)s1`: “Not Active”; `O=C(CCl)Nc1cc(-c2ccccc2)c(-c2nnc3sc(S)nn23)s1`: “Not Active”; `Cc1cc(NC(=O)CCl)sc1-c1nnc2sc(=S)[nH]n12`: “Not Active”.
Still for that read-out and setting: next, `Cc1cc(NC(=O)CCl)sc1-c1nnc2n1N=C(c1cc(F)c(Cl)cc1Cl)/C(=C/c1ccc(Cl)cc1)S2`: “Not Active”; `CC(=O)Nc1cc(-c2ccccc2)c(-c2nnc3sc(=S)[nH]n23)s1`: “Not Active”; `CC(=O)Nc1cc(-c2ccccc2)c(-c2nnc3n2N=C(c2cc(F)c(Cl)cc2Cl)/C(=C/c2ccc(Cl)cc2)S3)s1`: “Not Active”.
Regarding `CC1=Nn2c(nnc2-c2sc(NC(=O)CCl)cc2C)SC1`, the Activity entry is “Not Active”.
On the same count and under the same terms, under `CC(=O)Nc1cc(-c2ccccc2)c(-c2nnc3n2N=C(c2cc(F)c(Cl)cc2Cl)/C(=C/c2cccc([N+](=O)[O-])c2)S3)s1` stands “Not Active”; under `Cc1cc(NC(=O)CCl)sc1-c1nnc2n1N=C(c1cc(F)c(Cl)cc1Cl)/C(=C/c1ccccc1Cl)S2`, “Not Active”; under `CC(=O)Nc1cc(-c2ccccc2)c(-c2nnc3n2N=C(c2cc(F)c(Cl)cc2Cl)/C(=C/c2ccccc2)S3)s1`, “Not Active”.
As for `CC(=O)Nc1cc(C)c(-c2nnc3sc(=S)[nH]n23)s1`, the Activity result is given as “Not Active”.
Same read-out and setting: under `CC(=O)Nc1cc(C)c(-c2nnc3n2N=C(C)CS3)s1` stands “Not Active”.

For the origin of these results see ChEMBL document CHEMBL1149673, “A novel approach to cyclin-dependent kinase 5/p25 inhibitors: A potential treatment for Alzheimer's disease” (Bioorg Med Chem, 2007).
